The values that follow come from patent US9945860B2, “Nicotinamide adenine dinucleotide indicators, methods of preparation and application thereof” (East China University of Science and Technology, priority 2011, dated 2018).

Where “and” joins values, the source holds several entries; their conditions need not be identical. Identical values can stand only once.

The test system of data set [1] is NADH levels in mitochondria. The data set is described as follows: Real-time detection of mitochondrial NADH when respiratory chain complexes are inhibited. The class given is cell-based. The settings on record: for fluorescence (ex 485, em 528) of the sensor in mitochondria: treated for 30 min. How it is done: NADH that produced via glycolysis pathway and tricarboxylic acid cycle pathway will be oxidized by the oxidative phosphorylation pathway of mitochondrial respiratory chain, and then generate ATP to provide energy for various life activities. Fluorescent sensors for nicotinamide adenine dinucleotide were used to measure changes of NADH levels in mitochondria when various complexes in the respiratory chain were inhibited. […] Time interval between the figures was 1 min. The cells were observed before and after treatment under a laser scanning confocal microscope (Nikon, Japan). […].

Data set [2] relates to 293FT cells. The data set is described as follows: Real-time measurement of intracellular NADH after adding external NADH to the culture medium. The format is cell-based. The text has this:
As described in Example 7, the fluorescence sensors for reduced nicotinamide adenine dinucleotide were expressed in different subcellular organelles of 293FT cells. […] Following the addition of external NADH into cell culture medium, transfected cells were observed under a laser scanning confocal microscope (Nikon, Japan). […] As to the control group in comparison, the cpYFP presented alone was not affected by extra NADH either. Therefore, effects of pH and the variation in cpYFP per se by environmental changes could be excluded. This series of sensors were further utilized to detect influences of extra NADH on other organelles, and observed that extra NADH could also increase the NADH levels in nucleus and mitochondria, the results for nucleus study are shown in FIG. 8-1B, and those for mitochondria study are shown in FIG. 8-1C.

The test system of data set [3] is NADH levels in different subcellular compartments. The data set is described as follows: Real-time measurement of NADH levels regulated by glucose, pyruvate and lactate. The format is cell-based. The text has this: Glycolysis is an important pathway of producing NADH and it plays a vital role in regulating intracellular NADH levels. The nicotinamide adenine dinucleotide fluorescent sensors were used to test how several important metabolites in this pathway, glucose, pyruvate and lactate, would influence the NADH levels in different subcellular compartments. […] As products of glycolysis pathway, pyruvate and lactate are presented in the cytoplasm with a dynamic balance between them. At increased intracellular levels of pyruvate, lactate dehydrogenase consumes NADH and produces lactate and NAD^+, and in turn, leads to the decrease of NADH levels in cytoplasm. At increased intracellular levels of lactate, lactate dehydrogenase consumes NAD^+ and produces pyruvate and NADH, and in turn, leads to the increase of NADH levels in cytoplasm.

Data set [4] is described as follows: Spectral characteristics of fluorescent sensors (excitation and emission spectra). The settings on record: 10 μM sensor in 100 mM KPi, pH7.4. The class given is physicochemical. The method, then:
The fluorescent sensors that prepared above were dissolved in assay buffer (100 mM KPi, pH7.4) to formulate fluorescent sensor solutions to a final concentration of 10 μM. Then their absorption spectra were measured using a Multi-functional Fluorescence Microplate Reader (Synergy2, Biotek) (FIG. 3A).
Their excitation and emission spectra were determined using a fluorescence spectrophotometer (Cary Eclipse Fluorescence spectrophotometer, Varian) (FIG. 3B).

The subject of data set [5] is H1299 tumor cells. Description: In vivo imaging of NADH metabolism in H1299-superFrex tumors. The settings on record: 300 μl sodium pyruvate (100 mM) via the tail vein. Also noted: species or system nude mice. How it is done: H1299 tumor cells were transfected with pcDNA3.1-cyt-superFrex, and then screened under Hygromycin B for 2 weeks. […] Male nude mice of 5-6 weeks old were subcutaneously injected with 200 μl of H1299-superFrex cell suspension (1.0×10^7 cells) into their right armpits and housed for 3-4 weeks at SPF Animal facility, tumors in the nude mice grew to 0.6-1.0 cm. The nude mice were anaesthetized and then injected with 300 μl of sodium pyruvate (100 mM) via the tail vein. Effects of the agent on tumor metabolism were observed immediately with Kodak multifunctional vivo imaging system (Carestream, USA). […] Over time, pyruvate was gradually consumed metabolically, and the ratio of NADH/NAD^+ in tumor cells resumed the initial level (FIG. 12-C). In summary, superFrex, the fluorescent sensor for reduced/oxidized nicotinamide adenine dinucleotide ratio, works well in real-time monitoring of the NADH metabolism in tumor tissues.

Regarding `O=C(O)CC[N+](=O)[O-]` [3-NP], the “NADH levels in mitochondria” value in data set [1] (NADH sensor expressed in mitochondria, 6-minute profile) was “greatly decline”.

For the compound `NC(=O)C1=CN([C@@H]2O[C@H](COP(=O)(O)OP(=O)(O)OC[C@H]3O[C@@H](n4cnc5c(N)ncnc54)[C@H](O)[C@@H]3O)[C@@H](O)[C@H]2O)C=CC1` [NADH, reduced nicotinamide adenine dinucleotide], the “intracellular NADH levels” value in data set [2] (external NADH added to medium) is “immediate increase”. For the same compound, in data set [2] (extra NADH), the “NADH levels in nucleus and mitochondria” value is given as “increase”.

For the compound `CC(O)C(=O)O` (stereo not drawn) [lactate], in data set [3], the “NADH levels in cytoplasm” value is recorded as “rapid increase”.

Turning to `C=C(C)[C@H]1Cc2c(ccc3c2O[C@@H]2COc4cc(OC)c(OC)cc4[C@@H]2C3=O)O1` [rotenone], the “fluorescence (ex 485, em 528) of the sensor in mitochondria” value in data set [1] is “increased”.

In the case of “F-rex2: sensor from pRSETb-ydiH(189)-YFP-ydiH(190), Thermus aquaticus YdiH with cpYFP inserted, SEQ ID NO: 8”, in data set [4], the emission peak came out at 518 nm; the excitation peaks is 410 nm and 500 nm; the “intensity of the latter excitation peak relative to the former” value is recorded as “about half”.

For the compound antimycin A, the “fluorescence (ex 485, em 528) of the sensor in mitochondria” value in data set [1] was “increased”.

As for “cpYFP: circular permutation yellow fluorescent protein, control protein, SEQ ID NO: 22”, the “effect of extra NADH on control protein presented alone” value in data set [2] (293FT cells) is listed as “not affected”. Also, in data set [1] (6-minute profile), the “control protein expressed in mitochondria upon 3-NP treatment” value was “no obvious change”. Besides, in data set [5], the “control tumor cells expressing cpYFP, change caused by pyruvate” value was “no difference”.
